From patent publication EP3613735A1, “NOVEL SIRT 1 ACTIVATOR AND MEDICINAL USE THEREOF” (Pusan National University Industry - University Cooperation …, priority 2017, dated 2018)

What was measured:
db/db mice = test: Serum insulin by ELISA in obese animal model; assay type: in vivo; details: oral 5 mg/kg daily, compared with db/db mouse group
Experimental: The metabolic disease control ability of Compound 32u was analyzed using db/db mice lacking an appetite-regulating hormone leptin receptor as an obese animal model. Compound 32u was orally administered to db/db mice (9 weeks old) at a concentration of 5 mg/kg daily for 4 weeks. Next, the blood insulin concentration was measured using an enzyme-linked immunosorbent assay (ELISA). Mouse insulin ELISA (TMB) kit ([…], Japan) was used, and serum separated from animal blood was added to a 96 well plate coated with insulin primary antibody and after reacting, the secondary antibody and the substrate were added, reacted and the changed color was measured by an absorbance meter. The metabolic disease control ability of Compound 70c was analyzed using db/db mice lacking an appetite-regulating hormone leptin receptor as an obese animal model. Compound 70c was orally administered to db/db mice (9 weeks old) at a concentration of 5 mg/kg daily for 4 weeks. Next, the blood insulin concentration was measured using an enzyme-linked immunosorbent assay (ELISA). Mouse insulin ELISA (TMB) kit ([…], Japan) was used, and serum separated from animal blood was added to a 96 well plate coated with insulin primary antibody and after reacting, the secondary antibody and the substrate were added, reacted and the changed color was measured by an absorbance meter.

[1] = test system: yeast (Saccharomyces cerevisiae); test: Yeast lifespan extension; details: yeast group treated, compared with the control group

Cl.O=C(Nc1ccccc1-c1cc2ccc(CN3CCNCC3)cc2o1)c1ccc2ccccc2c1 [Compound 32u, N-(2-(6-(Piperazin-1-ylmethyl)benzofuran-2-yl)phenyl)-2-naphthamide hydrochloride]
serum insulin concentration (db/db mice): reduced
lifespan [1]: significantly extended

O=C(Nc1ccccc1-c1nc2cc(CN3CCN(C4CCCCC4)CC3)ccc2o1)c1ccc2ccccc2c1 [Compound 70c, N-(2-(5-((4-Cyclohexylpiperazin-1-yl)methyl)benzo[d]oxazol-2-yl)phenyl)-2-naphthamide]
serum insulin concentration (db/db mice): reduced
